Measured values reported in PMC3525754 (Biochemistry, 2012).
Values belong to the compound of their own block, whether it stands above or below them.

Columns and labels:
[1] = target: T1, DrPRODH (proline dehydrogenase from Deinococcus radiodurans R1) (Deinococcus radiodurans, UniProt Q9RW55); assay: X-ray crystal structure, […] Å; assay type: binding; conditions: oxidized enzyme complexed with THFA; two ribityl conformations
[2] = target: T1, DrPRODH (proline dehydrogenase from Deinococcus radiodurans R1); assay: steady-state CoQ1 reduction, absorbance […] nm; assay type: biochemical
[3] = target: T1, DrPRODH (proline dehydrogenase from Deinococcus radiodurans R1); assay: X-ray crystal structure, […] Å; assay type: binding; conditions: crystal reduced by soaking in 50 mM sodium dithionite

T1 sequence (Q9RW55 whole entry): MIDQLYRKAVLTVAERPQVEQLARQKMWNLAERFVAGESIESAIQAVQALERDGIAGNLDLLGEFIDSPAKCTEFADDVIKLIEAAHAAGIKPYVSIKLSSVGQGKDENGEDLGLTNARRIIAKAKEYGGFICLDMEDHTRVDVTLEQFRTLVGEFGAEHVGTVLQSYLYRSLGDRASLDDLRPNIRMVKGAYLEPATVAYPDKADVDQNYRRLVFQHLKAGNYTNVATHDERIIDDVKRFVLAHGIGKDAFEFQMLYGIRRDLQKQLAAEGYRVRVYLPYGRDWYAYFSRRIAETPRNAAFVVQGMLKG

SMILES: Cc1cc2nc3c(=O)[nH]c(=O)nc-3n(C[C@H](O)[C@H](O)[C@H](O)COP(=O)(O)OP(=O)(O)OC[C@H]3O[C@@H](n4cnc5c(N)ncnc54)[C@H](O)[C@@H]3O)c2cc1C [FAD]
- X-ray crystal structure, 1.36 Å [1]: The oxidized flavin exhibits two conformations

- Ki [2]: 38 mM
SMILES: O=C(O)[C@@H]1CCCO1 [THFA]

SMILES: Cc1cc2c(cc1C)N(C[C@H](O)[C@H](O)[C@H](O)COP(=O)(O)OP(=O)(O)OC[C@H]1O[C@@H](n3cnc4c(N)ncnc43)[C@H](O)[C@@H]1O)c1[nH]c(=O)[nH]c(=O)c1N2 [reduced FAD]
- X-ray crystal structure, 1.75 Å [3]: The reduced flavin of DrPRODHr exhibits just one ribityl conformation
